Laboratory results reported in publication PMC10937419, “Exploring pyrrolidinyl-spirooxindole natural products as promising platforms for the synthesis of novel spirooxindoles as EGFR/CDK2 inhibitors for halting breast cancer cells” (Frontiers in Chemistry, 2024).

Tests used:
MCF-7 cells [1] = assay: Cell cycle analysis by flow cytometry; assay type: cell-based; conditions: MCF-7, at the IC50 value, 48 h
MCF-7 cells [2] = assay: RT-PCR gene expression of apoptosis-related genes; assay type: cell-based; conditions: MCF-7, at the IC50 value, 48 h
Description: Both the untreated and treated MCF-7 cells were subjected to RT-PCR to confirm apoptotic cell death (Figure 5). […] These findings are in line with the possibility of triggering cell death by blocking enzymes. Activation of the intrinsic apoptotic pathway leads to mitochondrial potential loss and cytochrome c release. When the ratio of proteins that promote cell death to those that prevent it rises, a cascade reaction involving caspases 3 and 9 is set in motion, leading to cell death by caspase-dependent apoptosis.
“Values are expressed as Mean ± SD of three independent replicates”. “Data were normalized using β-actin as house-keeping gene. The dashed line represents the gene expression level of untreated control. Fold change was calculated using 2^^- ΔΔCT”.
Gene expression of Bcl-2, the anti-apoptotic gene, and the pro-apoptotic genes P53, Bax, and Caspapses-3,8,9 were examined to delve deeper into the apoptotic pathway. […] After treatment, RT-PCR reaction was carried out following routine work. Then, the Ct values were collected to calculate the relative genes’ expression in all samples by normalization to the β-actin housekeeping gene.

WISH cells = assay: MTT cytotoxicity (safety) assay, normal WISH cells; assay type: cell-based; conditions: mean ± SD of three independent trials
Description: The cytotoxicity of the synthesized compounds was tested using the MTT assay on breast cancer cells (MCF-7 and MDA-MB-231).
The methods for the Cytotoxic activity ([Mosmann, 1983]; [Nafie et al., 2020a]); EGFR/CDK-2 enzyme inhibition ([Nafie et al., 2022a]); Flow cytometry using Annexin V/PI staining; Gene expression analysis using RT-PCR ([Nafie et al., 2022b]); are amended in the Supplementary Material S1.
Both breast cancer; MCF-7 and MDA-MB-231 and normal (WISH) cells were purchased from the National Research Institute, Egypt, and maintained in RPMI-1640 medium L-Glutamine (Lonza Verviers SPRL, Belgium, cat#12-604F). All cells were incubated at 37 °C in 5% carbon dioxide atmosphere (NuAire). Cells were plated at a density of 5x10^4 cells in triplicates in a plate of 96 wells. On the second day, cells were treated with the compounds with concentrations of (0.01, 0.1, 1, 10, and 100 µM). Cell viability was assessed using the MTT assay [6].

EGFR kinase = target: T1, EGFR kinase (Homo sapiens, UniProt P00533); assay: EGFR kinase inhibition assay; assay type: biochemical; conditions: for % remaining EGFR kinase activity (relative to control): signal relative to control; for % remaining EGFR kinase activity (relative to control) / inhibition at 0.01 µM / inhibition at 0.1 µM / inhibition at 1 µM / inhibition at 2.5 µM / inhibition at 5 µM / inhibition at 10 µM: ΔT=30 min; for IC50: average of three independent replicates; for % Of EGFR inhibition: concentration not given in Table 2, matches 10 µM in the 4th table
T1 construct: purchased BPS Bioscience Corporation 40321
Description: (§1) Inhibitory activities of 5g, 5l, and 5n were tested against EGFR and CDK-2.
(§2) Plus, Promega, USA) inhibition assay.

MDA-MB-231 cells = assay: MTT cytotoxicity assay, MDA-MB-231 breast cancer cells; assay type: cell-based; conditions: Homo sapiens, MDA-MB-231, MTT assay; mean ± SD of three independent trials; read-out: IC50 ± SD, MDA-MB-231
Description: (§3) All cells were incubated at 37 °C in 5% carbon dioxide atmosphere (NuAire). Cells were plated at a density of 5x10^4 cells in triplicates in a plate of 96 wells. On the second day, cells were treated with the compounds with concentrations of (0.01, 0.1, 1, 10, and 100 µM). Cell viability was assessed using the MTT assay [6].

MCF-7 cells [3] = assay: MTT cytotoxicity assay, MCF-7 breast cancer cells; assay type: cell-based; conditions: Homo sapiens, MCF7; MTT assay; mean ± SD of three independent trials; read-out: IC50 ± SD, MCF-7
Description: as §3

MCF-7 cells [4] = assay: Annexin V/PI staining flow cytometry (apoptosis/necrosis); assay type: cell-based; conditions: MCF-7, at the IC50 value, 48 h
Description: The apoptotic activity of compounds 5g was determined by flow cytometric analysis of Annexin V/PI staining of untreated and treated MCF-7 cells. […] Additionally, they induced necrotic cell death by 5.43% compared to 2.12% in the untreated control.
FIGURE 4 (A) Bar representation of the percentage of apoptosis (early and late apoptotic cell population) using Annexin V/Propidium Iodide staining.
MCF-7 cells were seeded into 6-well culture plates (3-5× 10^5 cells/well) and incubated overnight. […] Next, media supernatants and cells were collected and rinsed with ice-cold PBS. Then cells were suspended the cells in 100 µL of annexin binding buffer solution "25 mM CaCl2, 1.4 M NaCl, and 0.1 M Hepes/NaOH, pH 7.4” and incubation with “Annexin V-FITC solution (1:100) and propidium iodide (PI)” at a concentration equals 10 µg/mL in the dark for 30 min. Stained cells were then acquired by BD FACSCalibur™ Flow Cytometer.

CDK-2 kinase = target: T2, CDK-2 kinase (Homo sapiens, UniProt P24941); assay: CDK-2 kinase inhibition assay (Kinase-Glo Plus); assay type: biochemical; conditions: for CDK-2 kinase activity remaining (% of control): signal relative to control; for CDK-2 kinase activity remaining (% of control) / inhibition at 0.01 µM / inhibition at 0.1 µM / inhibition at 1 µM / inhibition at 2.5 µM / inhibition at 5 µM / inhibition at 10 µM: ΔT=30 min; for inhibition at 0.01 µM / inhibition at 0.1 µM / inhibition at 1 µM / inhibition at 2.5 µM / inhibition at 5 µM / inhibition at 10 µM: read-out: % of inhibition, CDK2; for IC50: average of three independent replicates
T2 construct: purchased not clearly printed (Promega, USA is printed after 'Kinase-Glo Plus'; #79599 is a BPS Bioscience number to my knowledge) 79599
Description: as §1, §2

EGFR = system: EGFR; design: method as in Al-Jassas, et al., 2023; conditions: ref Al-Jassas, et al., 2023; read-out: IC50 for EGFR inhibition; cited from earlier work
CDK-2 = system: CDK-2; design: method as in Al-Jassas, et al., 2023; conditions: ref Al-Jassas, et al., 2023; read-out: CDK-2 inhibition; cited from earlier work
MCF-7 = system: MCF-7; design: method as in Al-Jassas, et al., 2023; conditions: ref Al-Jassas, et al., 2023; cited from earlier work
HepG2 = system: HepG2; design: method as in Al-Jassas, et al., 2023; conditions: ref Al-Jassas, et al., 2023; cited from earlier work
A549 cells = system: A549 cells; design: method as in Barakat, et al., 2023; conditions: ref Barakat, et al., 2023, cited from earlier work

T1 sequence (P00533 25-1210): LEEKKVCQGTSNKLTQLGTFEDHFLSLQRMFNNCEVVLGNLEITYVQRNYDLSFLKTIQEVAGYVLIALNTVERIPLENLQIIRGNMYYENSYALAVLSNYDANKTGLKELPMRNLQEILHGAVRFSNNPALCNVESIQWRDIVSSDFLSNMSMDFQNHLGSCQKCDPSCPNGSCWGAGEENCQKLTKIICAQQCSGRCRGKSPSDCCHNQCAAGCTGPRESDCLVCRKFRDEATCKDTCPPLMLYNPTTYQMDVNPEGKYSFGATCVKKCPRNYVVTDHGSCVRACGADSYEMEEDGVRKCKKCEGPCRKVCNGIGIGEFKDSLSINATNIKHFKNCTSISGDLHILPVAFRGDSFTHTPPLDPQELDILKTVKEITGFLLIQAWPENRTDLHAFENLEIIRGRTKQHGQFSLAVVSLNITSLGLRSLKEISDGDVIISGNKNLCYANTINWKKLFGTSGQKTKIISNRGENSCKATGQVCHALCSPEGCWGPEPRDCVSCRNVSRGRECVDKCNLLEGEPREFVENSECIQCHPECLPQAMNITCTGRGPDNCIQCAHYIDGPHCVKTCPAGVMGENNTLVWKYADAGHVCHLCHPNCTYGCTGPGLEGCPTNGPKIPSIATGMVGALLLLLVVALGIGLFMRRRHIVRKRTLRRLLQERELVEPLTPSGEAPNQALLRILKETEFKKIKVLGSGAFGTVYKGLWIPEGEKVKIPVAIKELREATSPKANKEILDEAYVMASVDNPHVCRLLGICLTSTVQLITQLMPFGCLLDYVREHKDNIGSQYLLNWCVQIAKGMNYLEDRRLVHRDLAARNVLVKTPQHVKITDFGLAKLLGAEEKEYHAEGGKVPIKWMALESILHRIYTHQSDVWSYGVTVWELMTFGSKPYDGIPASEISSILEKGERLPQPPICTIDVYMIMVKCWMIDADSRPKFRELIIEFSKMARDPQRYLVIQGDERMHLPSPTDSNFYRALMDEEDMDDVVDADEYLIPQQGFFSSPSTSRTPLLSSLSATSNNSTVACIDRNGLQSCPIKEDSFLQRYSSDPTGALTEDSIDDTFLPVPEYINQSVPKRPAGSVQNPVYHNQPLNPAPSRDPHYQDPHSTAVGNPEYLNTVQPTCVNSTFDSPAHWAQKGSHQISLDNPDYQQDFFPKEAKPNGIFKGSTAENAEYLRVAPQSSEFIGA

## O=C(O)CN1C(=O)S[C@@]2(C1=O)[C@@H](c1ccc(Cl)cc1)[C@H]1CSCN1[C@@]21C(=O)Nc2ccc(Br)cc21 [Compound 5g, 2-((3S,6′S,7′S,7a′S)-5-bromo-7'-(4-chlorophenyl)-2,2″,4″-trioxo-7′,7a′-dihydro-1′H,3′H-dispiro [indoline-3,5′-pyrrolo [1,2-c]thiazole-6′,5″-thiazolidin]-3″-yl)acetic acid]
MCF-7 cells [1]; control 31%
  cell population in the G0-G1-phase: 39.8%
MCF-7 cells [1]; control 32.1%
  cell population in the S-phase: 45.2%
MCF-7 cells [1]; versus untreated control
  cells population at G2/M phase: decreased
MCF-7 cells [2]; anti-apoptotic gene, downregulated
  Bcl-2 gene expression fold change: 0.39 fold
MCF-7 cells [2]; normalized to β-actin, 2^-ΔΔCT
  Bax gene expression fold change: 6.26 fold
  P53 gene expression fold change: 4.1 fold
  caspase 3 gene expression fold change: 9.2 fold
  caspase 8 gene expression fold change: 1.7 fold
  caspase 9 gene expression fold change: 6.13 fold
WISH cells
  IC50: 39300 ± 1800 nM
EGFR kinase; 0.01 µM
  % remaining EGFR kinase activity (relative to control): 90.58%
  inhibition at 0.01 µM: 9.42%
EGFR kinase; 0.1 µM
  % remaining EGFR kinase activity (relative to control): 69.72%
  inhibition at 0.1 µM: 30.3%
EGFR kinase; 1 µM
  % remaining EGFR kinase activity (relative to control): 40.27%
  inhibition at 1 µM: 59.7%
EGFR kinase; 2.5 µM
  % remaining EGFR kinase activity (relative to control): 33.39%
  inhibition at 2.5 µM: 66.6%
EGFR kinase; 5 µM
  % remaining EGFR kinase activity (relative to control): 31.63%
  inhibition at 5 µM: 68.4%
EGFR kinase; 10 µM
  % remaining EGFR kinase activity (relative to control): 7.867%
  inhibition at 10 µM: 92.6%
EGFR kinase
  IC50: 26 ± 6 nM
  % Of EGFR inhibition: 92.6 ± 1.9%
MDA-MB-231 cells
  IC50: 23500 ± 900 nM
MCF-7 cells [3]
  IC50: 2800 ± 400 nM
MCF-7 cells [4]
  early apoptosis: 21.87%
  late apoptosis: 10.15%
MCF-7 cells [4]; untreated control 2.12%
  necrotic cell death: 5.43%
CDK-2 kinase; 0.01 µM
  CDK-2 kinase activity remaining (% of control): 90.11%
  inhibition at 0.01 µM: 9.89%
CDK-2 kinase; 0.1 µM
  CDK-2 kinase activity remaining (% of control): 78.5%
  inhibition at 0.1 µM: 21.5%
CDK-2 kinase; 1 µM
  CDK-2 kinase activity remaining (% of control): 64.55%
  inhibition at 1 µM: 35.5%
CDK-2 kinase; 2.5 µM
  CDK-2 kinase activity remaining (% of control): 60.7%
  inhibition at 2.5 µM: 39.3%
CDK-2 kinase; 5 µM
  CDK-2 kinase activity remaining (% of control): 33.99%
  inhibition at 5 µM: 66%
CDK-2 kinase; 10 µM
  CDK-2 kinase activity remaining (% of control): 27.2254%
  inhibition at 10 µM: 91.9%
CDK-2 kinase
  IC50: 301 nM

## COC(=O)[C@H](C)NC(=O)CN1C(=O)S[C@@]2(C1=O)[C@@H](c1ccc(Cl)cc1)[C@H]1CSCN1[C@@]21C(=O)Nc2cc(Cl)ccc21 [Compound 5n, Methyl (2-((3S,6′S,7′S,7a′S)-6-chloro-7'-(4-chlorophenyl)-2,2″,4″-trioxo-7′,7a′-dihydro-1′H,3′H-dispiro [indoline-3,5′-pyrrolo [1,2-c]thiazole-6′,5″-thiazolidin]-3″-yl)acetyl)alaninate]
WISH cells
  IC50: 47200 ± 2100 nM
EGFR kinase; 0.01 µM
  % remaining EGFR kinase activity (relative to control): 71.48%
  inhibition at 0.01 µM: 28.5%
EGFR kinase; 0.1 µM
  % remaining EGFR kinase activity (relative to control): 59.63%
  inhibition at 0.1 µM: 40.4%
EGFR kinase; 1 µM
  % remaining EGFR kinase activity (relative to control): 36.13%
  inhibition at 1 µM: 63.9%
EGFR kinase; 2.5 µM
  % remaining EGFR kinase activity (relative to control): 37.42%
  inhibition at 2.5 µM: 62.6%
EGFR kinase; 5 µM
  % remaining EGFR kinase activity (relative to control): 30.59%
  inhibition at 5 µM: 69.4%
EGFR kinase; 10 µM
  % remaining EGFR kinase activity (relative to control): 8.54%
  inhibition at 10 µM: 91.2%
EGFR kinase
  IC50: 40 ± 1 nM
  % Of EGFR inhibition: 91.2 ± 2.1%
MDA-MB-231 cells
  IC50: 5300 ± 400 nM
MCF-7 cells [3]
  IC50: 3900 ± 300 nM
CDK-2 kinase; 0.01 µM
  CDK-2 kinase activity remaining (% of control): 91.05%
  inhibition at 0.01 µM: 8.95%
CDK-2 kinase; 0.1 µM
  CDK-2 kinase activity remaining (% of control): 74.4404%
  inhibition at 0.1 µM: 25.6%
CDK-2 kinase; 1 µM
  CDK-2 kinase activity remaining (% of control): 63.25%
  inhibition at 1 µM: 36.8%
CDK-2 kinase; 2.5 µM
  CDK-2 kinase activity remaining (% of control): 61.79%
  inhibition at 2.5 µM: 38.2%
CDK-2 kinase; 5 µM
  CDK-2 kinase activity remaining (% of control): 47.27%
  inhibition at 5 µM: 52.7%
CDK-2 kinase; 10 µM
  CDK-2 kinase activity remaining (% of control): 42.84%
  inhibition at 10 µM: 88.7%
CDK-2 kinase
  IC50: 557 nM
CDK-2 kinase; concentration not given in Table 2, matches 10 µM in the 5th table
  % Of CDK-2 inhibition: 88.7%

## O=C(c1ccc(Br)cc1)[C@H]1[C@H](c2cn(-c3ccccc3)nc2-c2ccccc2)C2CC3CCCCC3N2[C@]12C(=O)Nc1ccc(Cl)cc12 (stereo partly shown) [Compound II]
EGFR
  IC50: 96.6 nM
CDK-2
  IC50: 35 nM
MCF-7
  IC50: 189 ± 10 nM
HepG2
  IC50: 1040 ± 210 nM

## O=C(c1nc2ccccc2[nH]1)[C@H]1[C@H](c2ccc(Cl)cc2Cl)C2CC3CCCCC3N2[C@@]12c1ccccc1-c1nc3ccccc3nc12 (stereo partly shown) [hit III]
A549 cells; A549 cells versus normal lung fibroblasts Wi-38
  selectivity index (SI): 6.64
A549 cells
  IC50: 54 nM
